Patent publication US20090143279A1 (priority 2007, published 2009)
Several values for one entry are separate records, joined by “and”; a condition that tells them apart may be missing. Equal entries are not always repeated. Structures can show the parent of a compound that is named as a salt. Where a SMILES comes first, the peptide text is derived from it.

Tested on: cytochrome c
Assay type: cell-based, mouse
Conditions: not given

Compound	cyt c (composite Z-score)	cyt c	cyt c (composite Z-score vs DMSO)	cyt c (composite Z-score vs DMSO mock-treated wells)
CN1CCC(=C2c3ccccc3C=Cc3ccccc32)CC1 [cyproheptadine]	0.064			
NC[C@@H]1CC[C@@H](N)[C@@H](O[C@H]2[C@H](O)[C@@H](O[C@H]3O[C@H](CO)[C@@H](O)[C@H](N)[C@H]3O)[C@H](N)C[C@@H]2N)O1 [dibekacin]		0.464		
COc1c(Cl)ccc(Cl)c1C(=O)O [dicamba]		0.278		
Cc1onc(-c2c(Cl)cccc2Cl)c1C(=O)N[C@@H]1C(=O)N2[C@@H]1SC(C)(C)[C@@H]2C(=O)O [dicloxacillin sodium salt]		0.836		
COc1ccc([C@@H]2Sc3ccccc3N(CCN(C)C)C(=O)[C@@H]2OC(C)=O)cc1 [diltiazem]		0.385	−0.201	
CN(C)CCCSC(=N)N [dimaprit]	−0.184			
CNC(=O)CSP(=S)(OC)OC [dimethoate]		0.837		
Cc1c(C(N)=O)cc([N+](=O)[O-])cc1[N+](=O)[O-] [dinitolmide]			0.218	
CN1CCC(OC(c2ccccc2)c2ccccc2)CC1 [diphenylpyraline]		0.321 and 0.558		
O=c1[nH]c2ccccc2n1CCCN1CCC(n2c(=O)[nH]c3cc(Cl)ccc32)CC1 [domperidone]		0.276		
CCN[C@H]1C[C@H](C)S(=O)(=O)c2sc(S(N)(=O)=O)cc21 [dorzolamide]			−0.076	
CN(C)CCC=C1c2ccccc2COc2ccccc21 [doxepin]		1.151	−0.095	
O=C(CCCN1CC=C(n2c(=O)[nH]c3ccccc32)CC1)c1ccc(F)cc1 [droperidol]			0.270 and 0.161	
CCCSP(=O)(OCC)SCCC [ethoprop]		0.271		
O=C(OCCOCCO)c1ccccc1Nc1cccc(C(F)(F)F)c1 [etofenamate]		−0.030		
CC(C)(C(=O)O)c1ccc(C(O)CCCN2CCC(C(O)(c3ccccc3)c3ccccc3)CC2)cc1 (centres unmarked) [fexofenadine]		−0.751		
OC(Cn1cncn1)(Cn1cncn1)c1ccc(F)cc1F [fluconazole]			0.741	
CC1(C)O[C@@H]2C[C@H]3[C@@H]4C[C@H](F)C5=CC(=O)C=C[C@]5(C)[C@H]4[C@@H](O)C[C@]3(C)[C@]2(C(=O)CO)O1 [flunisolide]		0.715	−0.257	
OCCN1CCN(CCCN2c3ccccc3Sc3ccc(C(F)(F)F)cc32)CC1 [fluphenazine]				−0.074
COCCCC/C(=N\OCCN)c1ccc(C(F)(F)F)cc1 [fluvoxamine]		0.483		
NS(=O)(=O)c1cc(C(=O)O)c(NCc2ccco2)cc1Cl [furosemide]				0.234 and 0.342
COc1ccc(-c2ccc(=N)n(CCCC(=O)O)n2)cc1 [gabazine]		−0.094		
COc1ccc2c3c1O[C@H]1C[C@@H](O)C=C[C@@]31CCN(C)C2 [galanthamine]		−1.112		
O=c1c(-c2ccc(O)cc2)coc2cc(O)cc(O)c12 [genistein]			0.295	

Compound	cyt c (composite Z-score)	cyt c	cyt c (composite Z-score vs DMSO)	cyt c (composite Z-score vs DMSO mock-treated wells)
O=C(O)c1cc(O)ccc1O [gentisic acid]				0.210
Cc1cnc(C(=O)NCCc2ccc(S(=O)(=O)NC(=O)NC3CCCCC3)cc2)cn1 [glipizide]			0.287	
N[C@@H](CCC(=O)N[C@@H](CS)C(=O)NCC(=O)O)C(=O)O [glutathione]			−0.913	
C[N+]1(C)CCC(OC(=O)C(O)(c2ccccc2)C2CCCC2)C1 (centres unmarked) [glycopyrrolate]		0.260		
NCCc1c[nH]cn1 [histamine]			0.016	
Oc1ccc(O)cc1 [hydroquinone]			−4.999	
CN1[C@@H]2CC[C@H]1C[C@@H](OC(=O)[C@H](CO)c1ccccc1)C2 [hyoscyamine]		0.319		0.235
O=c1[nH]cnc2nc[nH]c12 [hypoxanthine]		0.608		
C[C@@H](O)[C@H]1C(=O)N2C(C(=O)O)=C(SCCN=CN)C[C@H]12 [imipenem]		−0.330		
O=C(NCC(O)CO)c1c(I)c(C(=O)NCC(O)CO)c(I)c(N(CCO)C(=O)CO)c1I (centres unmarked) [ioversol]		0.129		
O=C(/C=C/c1ccc(O)cc1)c1ccc(O)cc1O [isoliquiritigenin]	0.089			
COc1c2ccoc2c(OC)c2oc(=O)ccc12 [isopimpinellin]		0.230		
O=C1C=CC(=O)c2c(O)cccc21 [juglone]			0.266	
CC(=O)N1CCN(c2ccc(OCC3COC(Cn4ccnc4)(c4ccc(Cl)cc4Cl)O3)cc2)CC1 (centres unmarked) [ketoconazole]		0.406		0.109
O=C1C=C(O)C(=O)c2ccccc21 [lawsone]		−0.273		
NCCCC[C@H](N[C@@H](CCc1ccccc1)C(=O)O)C(=O)N1CCC[C@H]1C(=O)O [lisinopril]			0.265 and 0.412	
CC1CCC(C(C)C)C(O)C1 (centres unmarked) [menthol]		−0.074		
CN1CCCCC1CCN1c2ccccc2Sc2ccc([S+](C)[O-])cc21 (centres unmarked) [mesoridazine]	−0.121			
CN(C)C(=N)N=C(N)N [metformin]			0.597	
Cn1cc[nH]c1=S [methimazole]	−0.372		1.745	
Cc1cccc(C)c1OCC(C)N (centres unmarked) [mexiletine]		1.114		
CN1CCN2c3ccccc3Cc3ccccc3C2C1 (centres unmarked) [mianserin]		0.027		
CN1CCN2c3ccccc3Cc3ccccc3C2C1 (centres unmarked) [mianserine]		0.473		
CN(C/C=C/c1ccccc1)Cc1cccc2ccccc12 [naftifine]		0.645		

Same assay, conditions: composite Z-score vs mock-treated (DMSO) wells; concentration of each compound in μM

Compound	cyt c
C[C@]12CC[C@H](O)CC1=CC[C@@H]1[C@@H]2CC[C@]2(C)C(=O)CC[C@@H]12 [dehydroepiandrosterone]	−0.634
CN(CCCCCCCCCCN(C)C(=O)Oc1cccc([N+](C)(C)C)c1)C(=O)Oc1cccc([N+](C)(C)C)c1 [demecarium]	−0.211
COc1ccc(-c2cc(C(F)F)nn2-c2ccc(S(N)(=O)=O)cc2)cc1F [deracoxib]	0.350
COc1cc(OC)c2c(=O)c(-c3ccc4c(c3)OCO4)coc2c1 [derrustone]	0.470
CCCCc1cc2ccccc2c(OCCN(C)C)n1 [dimethisoquin]	−1.006
CNCC(O)c1ccc(OC(=O)C(C)(C)C)c(OC(=O)C(C)(C)C)c1 (centres unmarked) [dipivefrin]	−0.180
CC[C@H]1OC(=O)[C@H](C)[C@@H](O[C@H]2C[C@@](C)(OC)[C@@H](O)[C@H](C)O2)[C@H](C)[C@@H](O[C@@H]2O[C@H](C)C[C@H](N(C)C)[C@H]2O)[C@](C)(O)C[C@@H](C)[C@@H]2N[C@@H](COCCOC)O[C@H]([C@H]2C)[C@]1(C)O [dirithromycin]	0.356
CC(CCc1ccc(O)cc1)NCCc1ccc(O)c(O)c1 (centres unmarked) [dobutamine]	−0.289
CCCCCCCC/C=C/CCCCCCCCOP(=O)([O-])OCC[N+](C)(C)C [elaidylphosphocholine]	−0.840
CCc1cccc(CC)c1NC(=O)CN(CC(=O)O)CC(=O)O [etifenin]	0.092
CCOC(=O)C1=C(C)NC(C)=C(C(=O)OC)C1c1cccc(Cl)c1Cl (centres unmarked) [felodipine]	−0.956
Cc1cc(O)c(C=O)c2c1C(=O)Oc1c(COC(=O)/C=C/C(=O)O)c(O)c(C(=O)O)c(C)c1O2 [fumarprotocetraric acid]	0.505
CC(C)=CCC[C@]1(C)C=Cc2c(O)c3c(c(CC=C(C)C)c2O1)O[C@]12C(=C[C@@H]4C[C@H]1C(C)(C)O[C@@]2(C/C=C(/C)C(=O)O)C4=O)C3=O [gambogic acid]	−5.596
CO/N=C1\CN(c2nc3c(cc2F)c(=O)c(C(=O)O)cn3C2CC2)CC1CN (centres unmarked) [gemifloxacin]	0.009
CC(C)=CCC/C(C)=C/COC(=O)C=Cc1ccccc1 [geranyl cinnamate]	−0.107
Cc1ccc(S(=O)(=O)NC(=O)NN2CC3CCCC3C2)cc1 (centres unmarked) [gliclazide]	0.147
CC[C@H]1CN2CC[C@H]1C[C@H]2[C@H](O)c1ccnc2ccc(OC)cc12 [hydroquinine]	0.004
COc1ccc(-c2oc3c(CC=C(C)C)c(O[C@@H]4O[C@H](CO)[C@@H](O)[C@H](O)[C@H]4O)cc(O)c3c(=O)c2O[C@@H]2O[C@@H](C)[C@H](O)[C@@H](O)[C@H]2O)cc1 [icariin]	0.073
CC(=O)N(CC(O)CN(C(C)=O)c1c(I)c(C(=O)NCC(O)CO)c(I)c(C(=O)NCC(O)CO)c1I)c1c(I)c(C(=O)NCC(O)CO)c(I)c(C(=O)NCC(O)CO)c1I (centres unmarked) [iodixanol]	−0.092
COCC(=O)Nc1c(I)c(C(=O)NCC(O)CO)c(I)c(C(=O)N(C)CC(O)CO)c1I (centres unmarked) [iopromide]	0.263
COC(=O)C1=C(C)NC(C)=C(C(=O)OC(C)C)C1c1cccc2nonc12 (centres unmarked) [isradipine]	0.236
CC(C)=CCC[C@@H](C)[C@H]1CC[C@@]2(C)C3=C(CC[C@]12C)[C@@]1(C)CC[C@H](O)C(C)(C)[C@@H]1CC3 [lanosterol]	0.383
NCCCC[C@H](N)C(=O)N[C@@H](Cc1ccccc1)C(=O)N[C@@H](Cc1ccc(O)cc1)C(=O)O [lysylphenylalanyltyrosine] (H-Lys-Phe-Tyr-OH)	0.240
C[C@H]1[C@H](C)CC[C@]2(C(=O)O)CC[C@]3(C)C(=CC[C@@H]4[C@@]5(C)C[C@@H](O)[C@H](O)[C@@](C)(CO)[C@@H]5[C@H](O)C[C@]43C)[C@H]12 [madecassic acid]	0.241
CC(=O)O[C@]1(C(C)=O)CC[C@H]2[C@@H]3C=C(C)C4=CC(=O)CC[C@]4(C)[C@H]3CC[C@@]21C [megestrol acetate]	0.810
Cc1cccc(C)c1NC(=O)C1CCCCN1C (centres unmarked) [mepivacaine]	−0.084
C=N[C@@H](C(=O)N[C@@H]1C(=O)N2[C@@H]1SC(C)(C)[C@@H]2C(=O)O)c1ccccc1 [metampicillin]	0.821

Same assay, conditions: normalized score (composite Z-score vs DMSO mock-treated wells); compound concentration (μM)

Compound	cyt c
OCCOCCN1CCN(C(c2ccccc2)c2ccc(Cl)cc2)CC1 (centres unmarked) [hydroxyzine]	0.258
Clc1ccc(C(Cn2ccnc2)OCc2c(Cl)cccc2Cl)c(Cl)c1 (centres unmarked) [isoconazole]	−0.572
